Data from patent US8754047B2, “Peptide compositions and methods of use” (The Research Foundation for the State University of New York, priority 2008, dated 2014).
“Also recorded” adds a separate entry of the source. Positions of bridges follow the written chain, without caps; N, C: chain ends. Residues, ends and D or L forms follow the SMILES beside them.

Assays:
[1] = tested on: MCF-7 human breast cancer cells; experiment: Flow cytometry forward/side scatter, proportion of dead cells, MCF7; format: cell-based; settings: 200 μM, 24 hr
Protocol: SW480 human colon cancer cells and MCF7 breast cancer cells were grown following the instructions of American Type Culture Collection (ATCC, Monassas, Va.). The cells were treated with the test peptides (YJB01, YJB05, or YJB06) for 24 hrs at concentrations ranging from 0 μM, to 200 μM and subjected to flow cytometric analysis following standard protocols.
SW480 human colon cancer cells and MCF7 breast cancer cells were grown following the instructions of American Type Culture Collection (ATCC, Monassas, Va.). The cells were treated with the test peptides for 24 hrs at concentrations ranging from 0 μM, to 200 μM and subjected to flow cytometry analysis following standard protocols. […] The circumscribed (gated, outlined) areas in the figure indicate dead cells; dead cells generally have higher density (side scatter) and smaller size (forward scatter) than living cells.

[2] = tested on: SW480 human colon cancer xenografts; experiment: SW480 human colon cancer xenografts in nude mice, tumor volume; format: in vivo; settings: for reduction in tumor volume: vs vehicle
Protocol: (§1) Xenografts were generated as described in FIG. 3A-B and Example 3 except where noted. Each animal had two xenografts, one on its right flank and one on the left. In these studies, the effect of two doses of YJB01, 100 μg and 500 μg per animal were evaluated. The doses were administrated intraperitoneally once a day dissolved in phosphate buffered saline (PBS). Control animals were injected with PBS. Tumor volume was determined as described in Example 3. Tumor volume is expressed as mean±SEM.
as §1, with “the” for “FIG. 3A-B and”
Xenografts were generated as described in the Example 3 except that 8 Balb/c nude mice in each group were used in this experiment. Nude mice bearing SW480 xenografts were treated with 500 μg/day of YJB02 for 19 days. The doses were administrated intraperitoneally once a day dissolved in phosphate buffered saline (PBS). Control animals were treated with PBS.
Tumor volume was determined as described in Example 3. Tumor volume was monitored and graphed as set forth in FIG. 9A, and is expressed as mean±SEM.

[3] = tested on: BxPC-3 human pancreatic cancer cells; settings: 24 h
Protocol: (§2) 10,000 HT29 or SW480 human colon cancer cells, BxPC-3 human pancreatic cancer cells, and MCF7 and MDA-MB-231 breast cancer cells were obtained from American Type Culture Collection (ATTC), Manassas, Va., and were seeded in separate 96-well plates. After treatment with various concentrations (6.25 μM, 12.5 μM, 25 μM, 50 μM, 100 μM, or 200 μM) of test peptide for 24 h, cells were stained with MTT (3-(4,5-Dimethyl-2-thiazolyl)-2,5-diphenyl-2H-tetrazolium bromide, from Sigma-Aldrich) following the instructions of the manufacturer. Before dissolving MTT in SDS, the HT29 and SW480 cells were photographed using a digital camera connected with a phase-contrast microscope. (FIG. 2A1-8, and FIG. 2B1-6). Cells that are alive convert MTT into formazan in their active mitochondria and appear dark purple; dead cells are not stained by MTT and appear colorless.
(§3) The IC50 is the concentration of the test agent that inhibits cell growth by 50% at 24 hours of exposure. IC50s were determined using the MTT assay or using the cell Titer-Glo method and following the instructions of the manufacturer ([…]). […] (Sun, Y., and Rigas, B., (2008), Cancer Res., 68(20): 8269-8277).

[4] = tested on: MDA-MB-231 breast cancer cells; settings: 24 h
Protocol: as §2, §3

MCF7 breast cancer cells = settings: 24 h
Protocol: as §2, §3

thioredoxin 1 = biological target: T1, thioredoxin 1 (Homo sapiens, UniProt P10599); experiment: Thioredoxin 1 redox state, native PAGE immunoblot in SW480 cells; format: cell-based; settings: YJB01 20 μM and 100 μM, YJB05 100 μM
T1 construct: endogenous in cells; host or cells: SW480 human colon cancer cells
T1 sequence (P10599 1-105): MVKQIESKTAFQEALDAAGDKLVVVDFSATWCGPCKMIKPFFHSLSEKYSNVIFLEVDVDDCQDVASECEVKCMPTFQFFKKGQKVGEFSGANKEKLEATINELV
Protocol: (§4) SW480 human colon cancer cells were grown following the instructions of American Type Culture Collection (ATCC, Monassas, Va.). Cells were treated with either no peptide, with YBJ01 (at 20 μM and 100 μM), or with YBJ05 (at 100 μM). 10^6 cells were lysed in 6 mol/L guanidinium chloride, 50 mmol/L Tris/HCL (pH 8.3), 3 mmol/L EDTA, and 0.5% Triton-X-100 containing 50 mmol/L iodoacetic acid. After 30 min at 37° C., the excess idoacetic acid was removed using Microspin G-25 columns (GE Healthcare Life Sciences). Oxidized and reduced thioredxoin was separated by native PAGE. The gel was electroblotted onto a nitrocellulose membrane and probed with thioredoxin antibodies, followed by HRP-conjugated secondary antibody. Bands corresponding to thioredoxin were visualized by ECL.
as §4, with “10^6 cells from each sample were lysed” for “10^6 cells were lysed”, “native PAGE. […]” for “native PAGE. The gel was electroblotted onto a nitrocellulose membrane and probed with thioredoxin antibodies, followed by HRP-conjugated secondary antibody. Bands corresponding to thioredoxin were visualized by ECL.”

[5] = tested on: SW480 human colon cancer cells; experiment: In vitro cell viability assay by MTT / cell Titer-Glo, SW480; settings: 24 h
Protocol: as §2, §3
The effect of peptide YJB02 on SW480 colon cancer cells was compared to the effect of peptide YJB02 on the normal human colon epithelial cell line NCM460. […] The viability was determined as described in Example 2.

[6] = 500 μg intraperitoneally once a day for 10 days

CC[C@H](C)[C@H](NC(=O)[C@H](CCCCN)NC(=O)[C@@H](NC(=O)[C@H](CCC(N)=O)NC(=O)[C@H](CCCNC(=N)N)NC(=O)[C@@H]1CCCN1C(=O)[C@H](CCCCN)NC(=O)[C@@H]1CSSC[C@H](NC(=O)[C@H](Cc2c[nH]c3ccccc23)NC(=O)[C@@H](NC(=O)[C@H](C)N)[C@@H](C)O)C(=O)NCC(=O)N2CCC[C@H]2C(=O)N1)[C@@H](C)CC)C(=O)N[C@@H](Cc1c[nH]c2ccccc12)C(=O)N[C@@H](Cc1ccccc1)C(=O)N[C@@H](CCC(N)=O)C(=O)N[C@@H](CC(N)=O)C(=O)N[C@@H](CCCNC(=N)N)C(=O)N[C@@H](CCCNC(=N)N)C(=O)N[C@@H](CCSC)C(=O)N[C@@H](CCCCN)C(=O)N[C@@H](Cc1c[nH]c2ccccc12)C(=O)N[C@@H](CCCCN)C(=O)N[C@@H](CCCCN)C(=O)O [YJB01] (H-ATWCGPCKPRQIKIWFQNRRMKWKK-OH; disulfide 4-7; N-terminus and C-terminus assumed)
dead cells, MCF7 [1]: 72.12% | reduction in tumor volume ([2]; 100 μg intraperitoneally once a day for 21 days): 32% | tumor volume ([2]; 100 μg intraperitoneally once a day for 21 days, vehicle 776 mm^3): 527 mm^3 | tumor volume compared to its baseline [2, 6]: caused tumor regression | reduction in tumor volume [2, 6]: 60% | tumor volume ([2]; 500 μg intraperitoneally once a day for 10 days, vehicle 257 mm^3): 102 mm^3 | IC50 [3]: 109 µM | IC50 [4]: 88 µM | IC50 (MCF7 breast cancer cells): 68.9 µM | induction of the oxidized form of thioredoxin 1 (thioredoxin 1): induces the oxidized form of thioredoxin 1; also recorded: capable of inducing oxidation | IC50 [5]: 34.7 µM
